Among the data in US12509444B2, “Compounds and methods for CD73 modulation and indications therefor” (Plexxikon Inc., priority 2019, dated 2025) are IC50 values, retold here.

As usually defined, the IC50 is the concentration needed to halve the response being measured.

One test deals with T1, human CD73 (Homo sapiens, UniProt P21589).
T1 construct: expressed in transfected cells
T1 sequence (P21589 27-549): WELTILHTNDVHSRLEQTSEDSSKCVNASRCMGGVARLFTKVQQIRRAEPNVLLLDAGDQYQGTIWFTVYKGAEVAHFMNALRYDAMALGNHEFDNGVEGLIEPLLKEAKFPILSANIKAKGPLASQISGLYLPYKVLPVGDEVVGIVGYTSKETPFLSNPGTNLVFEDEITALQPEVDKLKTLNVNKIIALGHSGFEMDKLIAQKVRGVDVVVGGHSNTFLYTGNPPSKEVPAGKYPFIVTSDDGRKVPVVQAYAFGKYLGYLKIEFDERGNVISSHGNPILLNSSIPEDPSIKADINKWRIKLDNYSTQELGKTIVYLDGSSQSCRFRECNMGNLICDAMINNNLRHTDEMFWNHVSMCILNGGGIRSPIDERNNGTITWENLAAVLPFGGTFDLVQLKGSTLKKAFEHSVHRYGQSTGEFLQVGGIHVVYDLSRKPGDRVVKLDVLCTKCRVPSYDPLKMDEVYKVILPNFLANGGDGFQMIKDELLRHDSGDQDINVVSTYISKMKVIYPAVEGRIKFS
Kind of test: Inhibitor activity against CD73 in cell based assay (CD73 expressing CHO-K1 cells). The following applies: CHO-K1 cells expressing human CD73, 150 μM AMP, 4 hours of incubation; read-out: CHO-K1 CELL VARIANT: CD73 IC50. Summed up:
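Residual supernatant AMP was quantified via CellTiter-Glo luminescence (1 μM ATP added, 30 min, room temperature) after a 4 h exposure of human CD73-expressing CHO-K1 cells to 150 μM AMP plus compound, top final 10 μM, 8 points. IC50 came from nonlinear regression of percent inhibition.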

The target of test [1] is T2, Human CD73 (amino acid residues 27-549) (Homo sapiens, UniProt P21589).
T2 construct: Human CD73 (amino acid residues 27-549); His tag (N); made in house; host or cells: E. coli
T2 sequence (P21589 27-549): T1 sequence (P21589 27-549)
Kind of test: CD73 enzymatic assay (luciferase-based indirect assay, CellTiter-Glo). The note with it: 0.4 nM CD73, 150 μM AMP, 1 hour at room temperature. Format: biochemical. Summed up: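 Residual AMP inhibits luciferase, so luminescence reports CD73 turnover; read with CellTiter-Glo 2.0 plus 1 μM final ATP, 30 min. Reaction used 0.4 nM N-His CD73 (27-549, E. coli), 150 μM AMP, HEPES pH 7.4 with Tween 20, 1 h at room temperature. IC50 fitted by nonlinear regression.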
(In ATP-based viability assays light output follows the ATP content of the culture.)

SMILES strings stand for the structures.

In the case of `O=C(N[C@H]1CCCC(F)(F)C1)O[C@@H]1CCN(c2cnn(CCO)c(=O)c2Cl)C1` [P-0514, (R)-1-(5-chloro-1-(2-hydroxyethyl)-6-oxo-1,6-dihydropyridazin-4-yl)pyrrolidin-3-yl ((S)-3,3-difluorocyclohexyl)carbamate], the IC50 (on human CD73; in test [1]) was 0.001 to 10 µM throughout.
In the case of `N#CC1(NC(=O)O[C@@H]2CCN(c3cn[nH]c(=O)c3Cl)C2)CCC1` [P-0515, (R)-1-(5-chloro-6-oxo-1,6-dihydropyridazin-4-yl)pyrrolidin-3-yl (1-cyanocyclobutyl)carbamate], the concentration for half-maximal inhibition (IC50) (at human CD73; in test [1]) was 0.001 to 10 µM each time.
For `O=C(NC1CCC1)O[C@@H]1CCN(c2cn[nH]c(=O)c2Cl)C1` [P-0516, (R)-1-(5-chloro-6-oxo-1,6-dihydropyridazin-4-yl)pyrrolidin-3-yl cyclobutylcarbamate], the IC50 (at human CD73; in test [1]) was 0.001 to 10 µM each time.
Take `CC1(C)C(NC(=O)O[C@@H]2CCN(c3cn[nH]c(=O)c3Cl)C2)C1(C)C` [P-0517, (R)-1-(5-chloro-6-oxo-1,6-dihydropyridazin-4-yl)pyrrolidin-3-yl (2,2,3,3-tetramethylcyclopropyl) carbamate]: the concentration for half-maximal inhibition (IC50) (on human CD73; in test [1]) was 0.001 to 10 µM throughout.
For `O=C(NC1(C(F)(F)F)CCC1)O[C@@H]1CCN(c2cn[nH]c(=O)c2Cl)C1` [P-0518, (R)-1-(5-chloro-6-oxo-1,6-dihydropyridazin-4-yl)pyrrolidin-3-yl (1-(trifluoromethyl)cyclobutyl) carbamate], the IC50 (on human CD73; in test [1]) was 0.001 to 10 µM in each case.
